Assay results: patent US20230278972A1, “SUBSTITUTED HALOALKYL SULFONANILIDE HERBICIDES” (FMC Corporation, priority 2020, published 2023)

Assays:
Assay type in all cases: in vivo
[1] = test system: Foxtail, Giant (giant foxtail, Setaria faberi); test: Test A1 postemergence, Foxtail, Giant; conditions: for Plant response rating, Foxtail, Giant: Postemergence
Procedure, shortened: (§1)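 Plants grown in pots of loam/sand mix; preemergence = soil-directed spray on seeded pots, postemergence = spray at 1–2 leaves, height 2–10 cm; test chemicals formulated in non-phytotoxic solvent with surfactant.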

[2] = test system: galium (catchweed bedstraw, Galium aparine); test: Test A1 postemergence, galium; conditions: for Plant response rating, Galium: Postemergence
Procedure, shortened: as §1

[3] = test system: ragweed (common ragweed, Ambrosia artemisiifolia); test: Test A1 postemergence, ragweed; conditions: for Plant response rating, Ragweed: Postemergence
Procedure, shortened: (§2)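 Pre: seeds in loam/sand blend, directed soil spray. Post: potted plants, same soil, 2–10 cm, 1–2 leaf stage. Chemicals in non-phytotoxic solvent + surfactant for both.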

[4] = test system: barnyardgrass (Echinochloa crus-galli); test: Test B1 flooded paddy test, barnyardgrass; conditions: 250 g ai/ha, Flood, applied to paddy water, 2-leaf stage, visually evaluated after 10 to 14 days
Source text: (§3) A dash (-) response means no test result.

[5] = test system: blackgrass (Alopecurus myosuroides); test: Test A1 preemergence, blackgrass
Procedure, shortened: (§4)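 Herbicidal response was scored on plants treated either preemergence, by directed spray onto soil of a loam–sand blend after sowing, or postemergence on potted plants at the one- to two-leaf stage, 2–10 cm high. Test chemicals were carried in a non-phytotoxic solvent mix with surfactant.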

[6] = test system: soybean (Glycine max); test: Test A1 postemergence, soybean; conditions: for Plant response rating, Soybean: Postemergence
Procedure, shortened: as §1

[7] = test system: Ryegrass, Italian (Italian ryegrass, Lolium multiflorum); test: Test A1 preemergence, Ryegrass, Italian
Procedure, shortened: as §4

[8] = test system: goosegrass (Eleusine indica); test: Test A1 preemergence, goosegrass
Procedure, shortened: as §4

[9] = test system: Ryegrass, Italian (Italian ryegrass, Lolium multiflorum); test: Test A1 postemergence, Ryegrass, Italian; conditions: for Plant response rating, Ryegrass, Italian: Postemergence
Procedure, shortened: as §1

[10] = test system: horseweed (Erigeron canadensis); test: Test A1 postemergence, horseweed; conditions: for Plant response rating, Horseweed: Postemergence
Procedure, shortened: as §1

[11] = test system: kochia (Bassia scoparia); test: Test A1 preemergence, kochia
Procedure, shortened: as §4

[12] = test system: wheat (Triticum aestivum); test: Test A1 preemergence, wheat
Procedure, shortened: as §4

[13] = test system: Oat, Wild (wild oat, Avena fatua); test: Test A1 postemergence, Oat, Wild; conditions: for Plant response rating, Oat, Wild: Postemergence
Procedure, shortened: as §2

[14] = test system: soybean (Glycine max); test: Test A1 preemergence, soybean
Procedure, shortened: as §4

[15] = test system: corn (Zea mays); test: Test A1 postemergence, corn; conditions: Postemergence
Procedure, shortened: as §4

[16] = test system: kochia (Bassia scoparia); test: Test A1 postemergence, kochia; conditions: for Plant response rating, Kochia: Postemergence
Procedure, shortened: as §1

[17] = test system: goosegrass (Eleusine indica); test: Test A1 postemergence, goosegrass; conditions: for Plant response rating, Goosegrass: Postemergence
Procedure, shortened: as §1

[18] = test system: Foxtail, Giant (giant foxtail, Setaria faberi); test: Test A1 preemergence, Foxtail, Giant
Procedure, shortened: as §4

[19] = test system: rice (Oryza sativa); test: Test B1 flooded paddy test, rice; conditions: 250 g ai/ha, Flood, applied to paddy water, 2-leaf stage, visually evaluated after 10 to 14 days
Source text: as §3

[20] = test system: Pigweed, Palmer (palmer amaranth, palmer pigweed, Amaranthus palmeri); test: Test A1 postemergence, Pigweed, Palmer; conditions: for Plant response rating, Pigweed, Palmer: Postemergence
Procedure, shortened: as §2

[21] = test system: ducksalad (Heteranthera limosa); test: Test B1 flooded paddy test, ducksalad; conditions: 250 g ai/ha, Flood, applied to paddy water, 2-leaf stage, visually evaluated after 10 to 14 days
Source text: as §3

[22] = test system: wheat (Triticum aestivum); test: Test A1 postemergence, wheat; conditions: for Plant response rating, Wheat: Postemergence
Procedure, shortened: as §1

[23] = test system: corn (Zea mays); test: Test A1 preemergence, corn
Procedure, shortened: as §2

[24] = test system: blackgrass (Alopecurus myosuroides); test: Test A1 postemergence, blackgrass; conditions: Postemergence, 0 to 100 scale (0 no effect, 100 complete control)
Procedure, shortened: as §1

[25] = test system: Pigweed, Palmer (palmer amaranth, palmer pigweed, Amaranthus palmeri); test: Test A1 preemergence, Pigweed, Palmer
Procedure, shortened: as §4

[26] = test system: ragweed (common ragweed, Ambrosia artemisiifolia); test: Test A1 preemergence, ragweed
Procedure, shortened: as §4

[27] = test system: Oat, Wild (wild oat, Avena fatua); test: Test A1 preemergence, Oat, Wild
Procedure, shortened: as §4

[28] = 31 g ai/ha, postemergence, 0 to 100 scale (0 no effect, 100 complete control)
[29] = 31 g ai/ha, 0 to 100 scale (0 no effect, 100 complete control)
[30] = 125 g ai/ha, 0 to 100 scale, 0 no effect, 100 complete control
[31] = 31 g ai/ha, 0 to 100 scale (0 no effect, 100 complete control), 10 days

In the case of `CCC1CC(c2cc(N(COC(=O)C(C)(C)C)S(=O)(=O)C(F)(F)F)c(C)cc2C)=NO1` (stereo not drawn) [Compound 376], the “Foxtail, Giant plant response rating” value [1, 28] was 0, the “Plant response rating, Foxtail, Giant” value ([1]; 125 g ai/ha, 0 to 100 scale) was 20 and the “Galium plant response rating” value [2, 28] was 10. The “Plant response rating, Galium” value ([2]; 125 g ai/ha, 0 to 100 scale) was 30, the “Ragweed plant response rating” value [3, 28] was 20 and the “Plant response rating, Ragweed” value ([3]; 125 g ai/ha, 0 to 100 scale) was 40. For the same compound, the “Plant response rating, Barnyardgrass (0 to 100 scale, 0 is no effect, 100 is complete control)” value [4] was 95, the “Plant response rating, Blackgrass” value [5, 29] was 0 and the “Plant response rating, Blackgrass” value [5, 30] was 20. For the same compound, the “Soybean plant response rating” value [6, 28] was 20, the “Plant response rating, Soybean” value ([6]; 125 g ai/ha, 0 to 100 scale) was 100 and the “Plant response rating, Ryegrass, Italian” value [7, 29] was 0. The “Plant response rating, Ryegrass, Italian” value [7, 30] was 30, the “Plant response rating, Goosegrass” value [8, 29] was 50 and the “Plant response rating, Goosegrass” value [8, 30] was 100. For the same compound, the “Ryegrass, Italian plant response rating” value [9, 28] was 0, the “Plant response rating, Ryegrass, Italian” value ([9]; 125 g ai/ha, 0 to 100 scale) was 0 and the “Horseweed plant response rating” value [10, 28] was 0. The “Plant response rating, Horseweed” value ([10]; 125 g ai/ha, 0 to 100 scale) was 0, the “Plant response rating, Kochia” value [11, 29] was 0 and the “Plant response rating, Kochia” value [11, 30] was 80. For the same compound, the “Plant response rating, Wheat” value [12, 29] was 0, the “Plant response rating, Wheat” value [12, 30] was 20 and the “Oat, Wild plant response rating” value [13, 28] was 0. The “Plant response rating, Oat, Wild” value ([13]; 125 g ai/ha, 0 to 100 scale) was 0, the “Plant response rating, Soybean” value [14, 29] was 0 and the “Plant response rating, Soybean” value [14, 30] was 0. The “Plant response rating, Corn” value [15, 31] was 0, the “Plant response rating, Corn” value ([15]; 125 g ai/ha, 0 to 100 scale) was 0 and the “Kochia plant response rating” value [16, 28] was 0. The “Plant response rating, Kochia” value ([16]; 125 g ai/ha, 0 to 100 scale) was 50, the “Goosegrass plant response rating” value [17, 28] was 0 and the “Plant response rating, Goosegrass” value ([17]; 125 g ai/ha, 0 to 100 scale) was 50. The “Plant response rating, Foxtail, Giant” value [18, 29] was 0, the “Plant response rating, Foxtail, Giant” value [18, 30] was 30 and the “Plant response rating, Rice (0 to 100 scale, 0 is no effect, 100 is complete control)” value [19] was 20. For the same compound, the “Pigweed, Palmer plant response rating” value [20, 28] was 0, the “Plant response rating, Pigweed, Palmer” value ([20]; 125 g ai/ha, 0 to 100 scale) was 20 and the “Plant response rating, Ducksalad (0 to 100 scale, 0 is no effect, 100 is complete control)” value [21] was 70. The “Wheat plant response rating” value [22, 28] was 10, the “Plant response rating, Wheat” value ([22]; 125 g ai/ha, 0 to 100 scale) was 40 and the “Plant response rating, Corn” value [23, 29] was 0. For the same compound, the “Plant response rating, Corn” value [23, 30] was 0, the “Plant response rating, Blackgrass” value ([24]; 31 g ai/ha, 10 days) was 0 and the “Plant response rating, Blackgrass” value ([24]; 125 g ai/ha) was 50. For the same compound, the “Plant response rating, Pigweed, Palmer” value [25, 29] was 0, the “Plant response rating, Pigweed, Palmer” value [25, 30] was 40 and the “Plant response rating, Ragweed” value [26, 29] was 0. The “Plant response rating, Ragweed” value [26, 30] was 0, the “Plant response rating, Oat, Wild” value [27, 29] was 0 and the “Plant response rating, Oat, Wild” value [27, 30] was 10.

`Cc1c(C(=O)N2CCOCC2)cc(NS(=O)(=O)C(F)(F)F)c(Cl)c1F` [Compound 321] was tested, and the “Plant response rating, Foxtail, Giant” value [1, 31] was 0, the “Plant response rating, Foxtail, Giant” value ([1]; 125 g ai/ha, 0 to 100 scale) was 0 and the “Plant response rating, Galium” value [2, 31] was 100. The “Plant response rating, Galium” value ([2]; 125 g ai/ha, 0 to 100 scale) was 100, the “Plant response rating, Ragweed” value [3, 31] was 90 and the “Plant response rating, Ragweed” value ([3]; 125 g ai/ha, 0 to 100 scale) was 90. The “Plant response rating, Barnyardgrass (0 to 100 scale, 0 is no effect, 100 is complete control)” value [4] was 15, the “Plant response rating, Blackgrass” value [5, 29] was 0 and the “Plant response rating, Blackgrass” value [5, 30] was 70. The “Plant response rating, Soybean” value [6, 31] was 20, the “Plant response rating, Soybean” value ([6]; 125 g ai/ha, 0 to 100 scale) was 40 and the “Plant response rating, Ryegrass, Italian” value [7, 29] was 60. The “Plant response rating, Ryegrass, Italian” value [7, 30] was 60, the “Plant response rating, Goosegrass” value [8, 29] was 70 and the “Plant response rating, Goosegrass” value [8, 30] was 100. The “Plant response rating, Ryegrass, Italian” value [9, 31] was 30, the “Plant response rating, Ryegrass, Italian” value ([9]; 125 g ai/ha, 0 to 100 scale) was 40 and the “Plant response rating, Horseweed” value [10, 31] was 70. For the same compound, the “Plant response rating, Horseweed” value ([10]; 125 g ai/ha, 0 to 100 scale) was 80, the “Plant response rating, Kochia” value [11, 29] was 80 and the “Plant response rating, Kochia” value [11, 30] was 90. The “Plant response rating, Wheat” value [12, 29] was 0, the “Plant response rating, Wheat” value [12, 30] was 80 and the “Plant response rating, Oat, Wild” value [13, 31] was 0. For the same compound, the “Plant response rating, Oat, Wild” value ([13]; 125 g ai/ha, 0 to 100 scale) was 10, the “Plant response rating, Soybean” value [14, 29] was 60 and the “Plant response rating, Soybean” value [14, 30] was 60. The “Plant response rating, Corn” value [15, 31] was 10, the “Plant response rating, Corn” value ([15]; 125 g ai/ha, 0 to 100 scale) was 20 and the “Plant response rating, Kochia” value [16, 31] was 40. For the same compound, the “Plant response rating, Kochia” value ([16]; 125 g ai/ha, 0 to 100 scale) was 80, the “Plant response rating, Goosegrass” value [17, 31] was 0 and the “Plant response rating, Goosegrass” value ([17]; 125 g ai/ha, 0 to 100 scale) was 80. The “Plant response rating, Foxtail, Giant” value [18, 29] was 30, the “Plant response rating, Foxtail, Giant” value [18, 30] was 100 and the “Plant response rating, Rice (0 to 100 scale, 0 is no effect, 100 is complete control)” value [19] was 10. For the same compound, the “Plant response rating, Pigweed, Palmer” value [20, 31] was 50, the “Plant response rating, Pigweed, Palmer” value ([20]; 125 g ai/ha, 0 to 100 scale) was 70 and the “Plant response rating, Ducksalad (0 to 100 scale, 0 is no effect, 100 is complete control)” value [21] was 95. For the same compound, the “Plant response rating, Wheat” value [22, 31] was 0, the “Plant response rating, Wheat” value ([22]; 125 g ai/ha, 0 to 100 scale) was 10 and the “Plant response rating, Corn” value [23, 29] was 0. The “Plant response rating, Corn” value [23, 30] was 30, the “Plant response rating, Blackgrass” value ([24]; 31 g ai/ha, 10 days) was 10 and the “Plant response rating, Blackgrass” value ([24]; 125 g ai/ha) was 10. The “Plant response rating, Pigweed, Palmer” value [25, 29] was 90, the “Plant response rating, Pigweed, Palmer” value [25, 30] was 100 and the “Plant response rating, Ragweed” value [26, 29] was 50. The “Plant response rating, Ragweed” value [26, 30] was 90, the “Plant response rating, Oat, Wild” value [27, 29] was 0 and the “Plant response rating, Oat, Wild” value [27, 30] was 50.
